Assay results taken from patent publication US9649295B2, “Chemical inhibitors of soluble adenylyl cyclase (sAC)” (Cornell Research Foundation, Inc., priority 2004, dated 2017).
Entries after “also recorded” stand apart in the source; their conditions may differ. One block for each compound: values may come before it. Where no end group is shown, it is not given here.

How the values were obtained:
[1] = system: CREB phosphorylation in isolated nuclei; test: CREB phosphorylation in isolated HeLa nuclei (P2), Western analysis; assay type: biochemical; details: for relative intensity of phospho-CREB band normalized to basal: basal 1 U, 1 mM 8-Br cAMP, 40 mM bicarbonate alone or plus 10 μM H-89 or 1 mM 8-Br-RpcAMPs
Protocol: The resuspended pellet and 60% OptiPrep iodixanol were mixed (30% OptiPrep final) and centrifuged at 10,000 g for 20 min. The supernatant was removed and the nuclei-enriched pellet (P2) was resuspended in TM-2 buffer without detergent.
Reactions were stopped by the addition of 20 μl of SDS sample buffer (CREB phosphorylation) or by being placed into a 100° C. heat block for 3 min (adenylyl cyclase).
For whole cell and isolated nuclei CREB phosphorylation assays, equal cell or nuclear equivalents were separated under reducing conditions using a 10% SDS-PAGE, transferred to a PVDF membrane, and probed for CREB (rabbit polyclonal antiserum; Chemicon, Temecula, Calif.) and phosphorylated CREB (rabbit polyclonal antiserum; Upstate Biotechnology, Temecula, Calif.). HRP-conjugated secondary antibodies were used, and bands were visualized using ECL. Image analysis software (model Fluorchem 8800; Alpha Innotech, San Leandro, Calif.) was used to quantitate Western results. Intensities of phospho-CREB bands were normalized to total CREB.

[2] = target: T1, purified sperm isoform of sAC protein (pure sAC) (Homo sapiens, UniProt Q96PN6); test: in vitro cyclase activity of purified sAC protein (Table 1); assay type: biochemical
T1 construct: generated against human 48-kD isoform of sAC (sACt) antigen; made in house
T1 sequence (Q96PN6 1-469 limits assumed): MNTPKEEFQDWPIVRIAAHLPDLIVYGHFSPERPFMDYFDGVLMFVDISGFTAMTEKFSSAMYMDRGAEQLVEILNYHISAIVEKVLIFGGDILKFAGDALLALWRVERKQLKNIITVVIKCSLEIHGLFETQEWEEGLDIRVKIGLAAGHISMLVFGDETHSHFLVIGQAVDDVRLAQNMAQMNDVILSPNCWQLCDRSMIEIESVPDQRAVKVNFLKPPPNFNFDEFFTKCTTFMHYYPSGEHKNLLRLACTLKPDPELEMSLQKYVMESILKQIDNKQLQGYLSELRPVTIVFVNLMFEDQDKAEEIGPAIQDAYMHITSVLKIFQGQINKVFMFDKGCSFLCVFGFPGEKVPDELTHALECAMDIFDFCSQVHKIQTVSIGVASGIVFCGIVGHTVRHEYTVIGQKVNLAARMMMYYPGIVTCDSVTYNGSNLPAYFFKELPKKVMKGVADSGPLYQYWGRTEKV

[3] = target: T2, purified solubilized version of Type VII tmAC (sol.AC7) (Homo sapiens, UniProt P51828); test: in vitro cyclase activity of purified solubilized Type VII tmAC; assay type: biochemical; details: read-out: in vitro IC50 pure sol.AC7
T2 construct: a mixture of purified catalytic domains, C1 and C2, from Type VII tmAC; made in house
T2 sequence (P51828 279-406 limits assumed): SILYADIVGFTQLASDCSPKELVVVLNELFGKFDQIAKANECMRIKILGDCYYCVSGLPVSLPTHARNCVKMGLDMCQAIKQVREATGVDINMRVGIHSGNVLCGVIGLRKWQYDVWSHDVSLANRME
T2 sequence (P51828 879-1023 limits assumed): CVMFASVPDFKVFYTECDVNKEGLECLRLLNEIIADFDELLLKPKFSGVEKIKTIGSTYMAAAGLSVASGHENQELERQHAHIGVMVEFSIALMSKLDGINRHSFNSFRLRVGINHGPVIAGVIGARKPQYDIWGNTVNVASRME

[4] = target: T3, sperm sAC (sAC in extracts) (UniProt Q96PN6); test: in vitro cyclase activity in whole cell extracts from cells overexpressing sperm sAC cDNA; assay type: biochemical; details: unit inferred
T3 construct: whole cell extracts from cells overexpressing sperm sAC cDNA (sAC in extracts)

[5] = target: T4, Type II tmAC (tmAC in extracts) (Homo sapiens, UniProt Q08462); test: in vitro cyclase activity in extracts of cells overexpressing Type II tmAC; assay type: biochemical; details: unit inferred
T4 construct: expressed in transfected cells
T4 sequence (Q08462 whole entry): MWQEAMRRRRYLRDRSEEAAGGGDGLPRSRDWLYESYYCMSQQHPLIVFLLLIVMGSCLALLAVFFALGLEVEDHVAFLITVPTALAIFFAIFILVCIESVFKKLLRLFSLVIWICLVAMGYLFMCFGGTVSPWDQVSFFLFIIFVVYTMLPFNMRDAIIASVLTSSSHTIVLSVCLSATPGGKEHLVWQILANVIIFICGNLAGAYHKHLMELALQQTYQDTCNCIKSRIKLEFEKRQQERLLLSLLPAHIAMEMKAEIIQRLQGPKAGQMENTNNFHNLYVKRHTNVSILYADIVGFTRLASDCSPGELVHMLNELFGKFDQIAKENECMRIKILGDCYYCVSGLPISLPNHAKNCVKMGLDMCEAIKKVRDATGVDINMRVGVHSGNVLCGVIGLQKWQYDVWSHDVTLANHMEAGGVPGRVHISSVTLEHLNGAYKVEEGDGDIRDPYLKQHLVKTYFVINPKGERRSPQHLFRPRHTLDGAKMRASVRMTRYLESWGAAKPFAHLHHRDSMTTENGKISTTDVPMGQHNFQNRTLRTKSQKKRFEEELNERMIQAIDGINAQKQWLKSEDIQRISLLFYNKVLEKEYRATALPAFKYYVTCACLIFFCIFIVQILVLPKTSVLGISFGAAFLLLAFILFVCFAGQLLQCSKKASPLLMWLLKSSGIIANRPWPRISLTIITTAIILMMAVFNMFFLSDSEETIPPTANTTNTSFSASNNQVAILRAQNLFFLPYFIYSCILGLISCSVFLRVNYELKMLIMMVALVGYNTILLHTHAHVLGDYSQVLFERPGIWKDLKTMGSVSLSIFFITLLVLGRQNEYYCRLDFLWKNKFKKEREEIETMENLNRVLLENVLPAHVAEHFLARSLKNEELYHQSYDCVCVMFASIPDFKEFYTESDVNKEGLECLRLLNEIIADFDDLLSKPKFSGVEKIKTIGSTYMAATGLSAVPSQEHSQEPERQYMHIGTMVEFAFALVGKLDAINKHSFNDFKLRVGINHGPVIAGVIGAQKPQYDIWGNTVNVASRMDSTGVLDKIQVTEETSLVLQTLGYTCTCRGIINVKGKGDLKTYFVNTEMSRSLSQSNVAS

sAC = target: T5, sAC (Homo sapiens, UniProt Q96PN6); test: cAMP forming activity inside cells stably overexpressing sAC; assay type: cell-based; details: read-out: in vivo IC50 sAC (basal)
T5 construct: expressed in transfected cells
T5 sequence (Q96PN6 whole entry, species assumed): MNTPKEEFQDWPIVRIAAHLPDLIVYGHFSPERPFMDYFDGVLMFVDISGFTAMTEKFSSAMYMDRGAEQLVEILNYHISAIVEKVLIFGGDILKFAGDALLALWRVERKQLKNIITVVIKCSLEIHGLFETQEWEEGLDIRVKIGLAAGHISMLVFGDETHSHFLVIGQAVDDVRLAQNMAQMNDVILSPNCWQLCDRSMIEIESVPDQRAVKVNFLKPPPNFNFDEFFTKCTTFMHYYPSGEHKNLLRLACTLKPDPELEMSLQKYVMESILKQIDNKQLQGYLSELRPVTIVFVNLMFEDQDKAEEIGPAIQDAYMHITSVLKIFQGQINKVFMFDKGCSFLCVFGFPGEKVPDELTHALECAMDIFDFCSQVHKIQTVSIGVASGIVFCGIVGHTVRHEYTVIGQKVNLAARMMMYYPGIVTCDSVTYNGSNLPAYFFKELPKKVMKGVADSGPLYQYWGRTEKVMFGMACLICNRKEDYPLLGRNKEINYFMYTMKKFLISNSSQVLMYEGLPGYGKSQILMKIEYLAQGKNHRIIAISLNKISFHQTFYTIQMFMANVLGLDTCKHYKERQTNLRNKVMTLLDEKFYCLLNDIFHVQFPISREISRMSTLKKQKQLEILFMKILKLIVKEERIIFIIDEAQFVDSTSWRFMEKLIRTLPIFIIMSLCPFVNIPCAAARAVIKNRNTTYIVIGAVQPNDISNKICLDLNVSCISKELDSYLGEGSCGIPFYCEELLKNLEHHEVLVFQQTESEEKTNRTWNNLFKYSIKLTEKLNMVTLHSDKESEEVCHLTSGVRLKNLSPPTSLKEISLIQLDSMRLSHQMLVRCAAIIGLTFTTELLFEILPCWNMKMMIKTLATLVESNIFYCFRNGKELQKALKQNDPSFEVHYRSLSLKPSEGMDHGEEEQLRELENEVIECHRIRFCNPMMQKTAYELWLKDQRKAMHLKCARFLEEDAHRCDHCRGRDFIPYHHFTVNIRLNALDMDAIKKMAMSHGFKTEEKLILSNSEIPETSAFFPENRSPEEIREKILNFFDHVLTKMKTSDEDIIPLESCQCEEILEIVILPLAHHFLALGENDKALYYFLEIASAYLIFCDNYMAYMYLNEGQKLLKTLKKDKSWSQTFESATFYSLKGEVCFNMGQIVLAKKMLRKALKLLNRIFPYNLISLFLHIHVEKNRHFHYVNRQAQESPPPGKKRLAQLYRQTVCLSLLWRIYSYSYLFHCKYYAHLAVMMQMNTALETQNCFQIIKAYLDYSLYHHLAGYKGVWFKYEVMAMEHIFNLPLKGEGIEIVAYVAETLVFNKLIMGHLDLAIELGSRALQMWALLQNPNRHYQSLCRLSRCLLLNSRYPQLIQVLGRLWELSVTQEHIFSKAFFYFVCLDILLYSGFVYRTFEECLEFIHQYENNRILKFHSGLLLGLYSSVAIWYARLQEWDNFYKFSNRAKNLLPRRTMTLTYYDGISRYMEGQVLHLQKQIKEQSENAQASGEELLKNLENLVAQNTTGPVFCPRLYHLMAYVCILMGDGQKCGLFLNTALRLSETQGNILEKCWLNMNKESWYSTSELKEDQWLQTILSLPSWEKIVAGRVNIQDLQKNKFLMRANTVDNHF

tmACs [6] = test: cAMP forming activity inside cells stimulated with forskolin; assay type: cell-based; details: read-out: in vivo IC50 tmAC (FSK)
INS-1E cells [7] = test: insulin release in INS-1E cells; assay type: cell-based; details: for insulin release in low glucose: 2.5 mM glucose, 10 nM glucagon; for effect on glucose-stimulated insulin secretion (GSIS): 30 μM KH7, 30 μM KH7.15, 50 μM 2-hydroxyestradiol, 50 μM 2′5′ddAdo
Protocol: (§1) Briefly, cells (passage 140-150) were plated at 2.5×10^5 cells/well in a 24 well plate and permitted to recover for two days. Cells were glucose starved by incubation for 1 hour in the presence of 2.5 mM glucose KRB medium supplemented with 2 mM sodium bicarbonate, 10 mM Hepes, and 0.1% BSA. After washing, cells were incubated in KRB with either 2.5 mM or 16 mM glucose in the presence of either vehicle control (DMSO or MeOH) or indicated drug. After the indicated time, removed media was cleared of cell debris and secreted insulin was measured by Insulin ELISA kit (Linco Research, St. Charles, Mo., or ALPCO, Windham, N.H.). If cAMP was to be concomitantly measured, cells were pre-treated with IBMX for the final 10 minutes of the glucose starvation and IBMX was included in all subsequent incubations. For the washout experiment, subsequent to initial insulin determination, cells treated with KH7 were placed in fresh KRB (2.5 mM glucose) for an additional hour and insulin release was measured as above in the absence of any added drug. For transferrin recycling, loading of cells with I^125 transferrin was performed during hour incubation in 2.5 mM glucose KRB.

cAMP in INS-1E cells = test: intracellular cAMP in INS-1E cells; assay type: cell-based; details: for cAMP generation in low glucose: 2.5 mM glucose, 15 minutes, 10 nM glucagon; for effect on cAMP induced by high glucose: 16 mM glucose, 30 μM KH7, 30 μM KH7.15, 50 μM 2-hydroxyestradiol, 50 μM 2′5′ddAdo
Protocol: as §1

Plasmodium falciparum = Plasmodium falciparum viability, luciferase assay; assay type: cell-based
Protocol: . Plasmodium cultures were incubated in the indicated concentrations of KH7 or KH7.15 for 24 hours and viability assessed by luciferase assay (FIG. 16A). […].
Therefore, the effect of sAC inhibitors on P. falciparum viability was tested. […].

PfAC = test: adenylyl cyclase activity in whole cell extract of isolated parasites; assay type: biochemical, Plasmodium falciparum
tmACs [8] = test: adenylyl cyclase activity in forskolin stimulated INS-1E cell lysate; details: forskolin (10 μM) stimulated INS-1E
Protocol: (§2) In vitro adenylyl cyclase assays were performed on purified recombinant human sACt protein as previously described in Litvin et al., “Kinetic Properties of “Soluble” Adenylyl Cyclase.

[9] = target: T6, purified recombinant human sACt protein (Homo sapiens, UniProt Q96PN6); test: in vitro adenylyl cyclase assay on purified recombinant human sACt protein
T6 sequence (Q96PN6 1-469 limits assumed): T1 sequence (Q96PN6 1-469 limits assumed)
Protocol: as §2

INS-1E cells [10] = test: transferrin recycling in INS-1E cells; assay type: cell-based; details: 30 minutes, KH7 30 μM
Protocol: as §1

primary mouse islets = test: insulin release from isolated mouse islets; assay type: cell-based; details: 16.7 mM glucose, 30 minutes, 30 μM KH7
Protocol: After several washes with Hank's Balanced Salt Solution, islets were hand-picked and 15-20 islets were distributed into each well of a 12 well plate to adhere overnight in RPMI-1640 media supplemented with 10 mM HEPES, 5.6 mM glucose, 10% FBS, 2 mM L-glutamine, 1 mM sodium pyruvate, and antibiotics.
Insulin release from isolated islets was performed in 12 well plates. Islets were preincubated in KRB (2.8 mM glucose) for 1 hour followed by incubation for 30 minutes in 2.8 mM glucose KRB in the presence of drug. The same wells were then incubated for an additional 30 minutes in 16.7 mM glucose KRB in the presence of the same drugs. Media was removed, cleared of cells, and insulin was measured.

[11] = system: CREB phosphorylation in isolated nuclei; test: phospho-CREB immunocytochemistry of isolated nuclei; assay type: biochemical; details: 10 min; 40 mM sodium bicarbonate, 1 mM 8-Br cAMP, 10 μM forskolin
Protocol: Cell Signaling Technologies) overnight at 4° C. Staining was visualized by incubation with goat anti-rabbit Alexa Fluor 488 (Molecular Probes) for 1 h at room temperature, treated with DAPI for 5 min, and washed and mounted with gelvatol/DABCO (Sigma-Aldrich). Fluorescent images were recorded by a digital camera (Hamamatsu, Bridgewater, N.J.) connected to an inverted epifluorescent microscope (Nikon, Melville, N.Y.). Images were taken at the same exposure time and gain, and all photographic manipulations were performed equally. Phospho-CREB-positive nuclei were quantified in multiple fields from each stained slide by a blinded experimenter. […] Nuclei were also treated with DAPI to differentiate intact nuclei from membrane ghosts. DAPI-positive nuclei were scored for phosho-CREB immunofluorescence. Nuclei with detectable staining (FIG. 6A, NaHCO3) were considered positive for CREB phosphorylation, whereas nuclei with no detectable staining (FIG. 6A, Basal) were counted as negative. Multiple microscopic fields were photographed for each condition, and data was combined from three to five separate experiments.

Compound: Nc1ncnc2c1ncn2[C@@H]1O[C@@H]2CO[P@@](O)(=S)O[C@H]2[C@H]1O [RpcAMPs]
relative intensity of phospho-CREB band normalized to basal [1]: 8 U
reduction of CREB phosphorylation induced by bicarbonate ([1]; isolated nuclei, 40 mM bicarbonate): 70%

IC50 ([2]; unit inferred): 80 µM
Compound: Cc1ccsc1/C=N/NC(=O)CSc1nc2ccccc2n1Cc1ccccc1 [KH7.10]

IC50 ([2]; μM): 2 µM
IC50 [3]: > 400 µM
IC50 [4]: > 100 µM
IC50 [5]: > 100 µM
IC50 (sAC): > 500 µM
IC50 (tmACs [6]): > 500 µM
Compound: COc1ccc(/C=C2\C(=O)N(c3nc(-c4ccc(Cl)cc4)cs3)N=C2c2ccccc2)cc1OC [KH2]

IC50 ([2]; μM): 30 µM
IC50 (sAC): 30 µM
IC50 (tmACs [6]): > 200 µM
Compound: O=C(CSc1nc2ccccc2[nH]1)N/N=C/c1cc(Br)ccc1O [KH7.07]

Compound: GLP-1: hormone stimulating tmACs (HAEGTFTSDVSSYLEGQAAKEFIAWLVKGR; ends and bridges not checked; UniProt P01275 98-127, looked up) [reference compound]
insulin release in low glucose (INS-1E cells [7]; 15 minutes): no significant increase in insulin release
cAMP generation in low glucose (cAMP in INS-1E cells): three fold increase in cAMP generation

IC50 ([2]; unit inferred): ~30 µM
Compound: O=C(CSc1nc2ccccc2[nH]1)N/N=C/c1c(F)cccc1Cl [KH7.06]

Compound: COc1cc(/C=N/NC(=O)CSc2nc3ccccc3[nH]2)ccc1O [KH7.15]
effect on glucose-stimulated insulin secretion (GSIS) (INS-1E cells [7]; 16 mM glucose): did not affect insulin secretion
effect on cAMP induced by high glucose (cAMP in INS-1E cells): not
dose required to kill parasites (Plasmodium falciparum): ≥ 100 µM
lower affinity for killing P. falciparum relative to KH7 (Plasmodium falciparum): 10 fold
dose required to inhibit PfAC activity (PfAC): ≥ 100 µM
lower affinity for inhibiting PfAC activity relative to KH7 (PfAC): 10 fold
effect on tmACs (tmACs [8]): inert
effect on cyclase activity of purified sAC ([9]; bicarbonate (40 mM) and calcium (0.5 mM)): inert

Compound: C[C@]12CC[C@@H]3c4cc(O)c(O)cc4CC[C@H]3[C@@H]1CC[C@@H]2O [2-hydroxyestradiol, reference compound]
effect on glucose-stimulated insulin secretion (GSIS) (INS-1E cells [7]; 16 mM glucose): completely inhibited GSIS
effect on cAMP induced by high glucose (cAMP in INS-1E cells): blocked the cAMP induced by the presence of high glucose
effect on transferrin recycling (INS-1E cells [10]): unaffected
effect on insulin release induced by high glucose in islets (primary mouse islets): inhibited insulin release induced by high glucose

IC50 ([2]; unit inferred): 75 µM
Compound: CCn1c(SCC(=O)N/N=C/c2cc(Br)ccc2O)nc2ccccc21 [KH7.13]

IC50 ([2]; μM): 8 µM
IC50 [3]: > 500 µM
IC50 [4]: > 100 µM
IC50 [5]: > 100 µM
IC50 (sAC): > 500 µM
IC50 (tmACs [6]): > 500 µM
Compound: Cc1ccc(C)c(N2C(=O)/C(=C/c3ccc(Cl)cc3)C=C2c2ccccc2)c1 [KH3]

Compound: glucagon: hormone stimulating tmACs [reference compound]
insulin release in low glucose (INS-1E cells [7]; 15 minutes): no significant increase in insulin release
cAMP generation in low glucose (cAMP in INS-1E cells): three fold increase in cAMP generation

Compound: Nc1ncnc2c1nc(Br)n2[C@@H]1O[C@@H]2COP(=O)(O)O[C@H]2[C@H]1O [8-Br-cAMP]
relative intensity of phospho-CREB band normalized to basal [1]: 30 U
increase in CREB phosphorylation ([1]; isolated nuclei, Western): 30 fold
percentage of phospho-CREB-positive nuclei relative to basal [11]: at least a twofold rise

IC50 ([2]; μM): 23 µM
IC50 [3]: > 200 µM
IC50 (sAC): > 500 µM
IC50 (tmACs [6]): > 500 µM
Compound: CCCCOc1ccc(C2=N/C(=C\C(Br)=C\c3ccccc3)C(=O)O2)cc1 [KH1]

IC50 ([2]; μM): 6 µM
IC50 [3]: > 27 µM
IC50 [4]: > 100 µM
IC50 [5]: > 100 µM
IC50 (sAC): > 500 µM
IC50 (tmACs [6]): > 500 µM
Compound: Cc1ccccc1N1C(=O)/C(=C/c2ccc(-c3ccc(Cl)c(Cl)c3)o2)C=C1c1ccccc1 [KH4]

Compound: CC(C)Cn1c(=O)n(C)c(=O)c2[nH]cnc21 [IBMX, reference compound]
restoration of GSIS in the presence of KH7 (INS-1E cells [7]; 0.5 mM IBMX, 30 μM KH7): did not restore GSIS in the presence of KH7 inhibition
enhancement of GSIS (INS-1E cells [7]; 0.5 mM IBMX, 16 mM glucose, 15 minutes): at least 2 fold

IC50 ([2]; unit inferred): ~30 µM
IC50 (sAC): 30 µM
IC50 (tmACs [6]): > 200 µM
Compound: COc1ccc(Br)cc1/C=N/NC(=O)CSc1nc2ccccc2[nH]1 [KH7.05]

Compound: C[C@H]1O[C@@H](n2cnc3c(N)ncnc32)C[C@@H]1O [2′5′ddAdo, 2′5′ dideoxyadenosine]
effect on cAMP induced by high glucose (cAMP in INS-1E cells): partially decreased glucose-induced cAMP generation
effect on tmACs (tmACs [8]): potent inhibitor of tmACs
effect on sAC ([9]; bicarbonate/calcium stimulated pure sAC, concentrations up to 300 μM): did not significantly affect sAC; also recorded: inert towards sAC
